Literature values, collected in US20250161386A1, “METHOD OF IMPROVING COGNITIVE FUNCTION IN ADULTS” (SEMPERA ORGANICS, INC., priority 2023, published 2025).

Tests used:
[1] = rat, oral administration of H. erinaceus mycelia extract
[2] = system: pro-brain-derived neurotrophic factor (BDNF); details: mice, after administration

time of peak plasma concentration post dose [1] [min]	Compound	circulating pro-BDNF [2]
270	CC(C)C1=C2[C@H]3CCC4=C(O)C(=O)[C@@]5(O)CO[C@H]6O[C@@H]([C@@H]4[C@]65O)[C@]3(C)CC[C@@]2(C)CC1 [erinacine S]	
	CCCCCCCCCCCCCCCC(=O)OCc1cc(OC)c(C/C=C(\C)CCC=C(C)C)c(O)c1C=O [hericene A]	increase
